Assay [1] addresses T1, Enoyl-(Acyl-carrier-protein) reductase (Streptococcus pneumoniae, UniProt Q9FBC5).
T1 sequence (Q9FBC5 whole entry): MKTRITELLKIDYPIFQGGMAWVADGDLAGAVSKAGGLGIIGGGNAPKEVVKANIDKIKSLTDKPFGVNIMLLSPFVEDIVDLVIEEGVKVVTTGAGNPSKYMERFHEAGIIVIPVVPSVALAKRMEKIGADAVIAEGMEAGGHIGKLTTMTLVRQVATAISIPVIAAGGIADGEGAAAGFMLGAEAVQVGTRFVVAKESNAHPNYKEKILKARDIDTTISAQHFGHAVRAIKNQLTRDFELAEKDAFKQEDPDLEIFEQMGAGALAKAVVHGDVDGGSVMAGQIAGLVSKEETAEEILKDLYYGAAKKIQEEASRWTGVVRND
The assay is described as follows: Inhibition of Streptococcus pneumoniae KU197 FabK.

In assay [2] the test system is Streptococcus pneumoniae. Nature of the assay: Antibacterial activity against Streptococcus pneumoniae KU197. The class given is functional.
A short description of assay [3]: Inhibition of Escherichia coli FabI.

In brackets after ≈: the same amount, converted by molar mass.

The source of these data is ChEMBL document CHEMBL1140684, “Phenylimidazole derivatives as new inhibitors of bacterial enoyl-ACP reductase FabK” (Bioorg Med Chem Lett, 2007).

In general, IC50 refers to the concentration that inhibits the measured activity by half. Read a high IC50 as weaker potency in that assay. For orientation: MIC means the smallest concentration in the dilution series that meets the test's criterion for growth inhibition. High values mean weaker potency, low ones greater potency.

`CS(=O)(=O)c1ccc2nc(NC(=O)NCc3cccnc3)sc2c1` showed an IC50 in assay [1] of 24 µM. In assay [2], this compound came in with an MIC greater than 32 µg/mL.

`O=C(Nc1nc2ccccc2s1)OCc1nc2ccccc2[nH]1` displayed an IC50 in assay [1] greater than 32 µM. Moreover, the MIC in assay [2] was greater than 32 µg/mL.

In the case of `COc1cccc2sc(NC(=O)NCc3nc4ccccc4[nH]3)nc12`, the IC50 in assay [3] and in assay [1] was greater than 32 µM each time.

As to `COc1ccc2sc(NC(=O)NCc3nc4ccccc4[nH]3)nc2c1`, the IC50 in assay [3] and in assay [1] was greater than 32 µM in each case.

As to `CS(=O)(=O)c1ccc2nc(NC(=O)NCc3nc4ccccc4[nH]3)sc2c1`, the IC50 in assay [3] is greater than 32 µM; in assay [1], 0.76 µM. This compound also gave an MIC in assay [2] of 4 µg/mL (≈ 9.96 µM).

Regarding `CS(=O)(=O)c1ccc2nc(NC(=O)NCc3nc(-c4ccccc4)c[nH]3)sc2c1`, the figures for the IC50 in assay [3] and in assay [1] were greater than 32 µM and 0.14 µM, respectively. Also, the MIC in assay [2] worked out at 0.5 µg/mL (≈ 1.17 µM).

Turning to `O=C(CSc1nc2ccccc2[nH]1)Nc1nc2ccc(C(=O)O)cc2s1`, the IC50 in assay [1] was greater than 32 µM. For the same compound, the MIC in assay [2] was greater than 32 µg/mL.

In turn, `O=C(CSc1nc2ccccc2[nH]1)Nc1nc2ccccc2s1` displayed an IC50 in assay [1] greater than 32 µM. This compound came in with an MIC in assay [2] greater than 32 µg/mL.

As to `O=C(NCc1nc2ccccc2[nH]1)Nc1nc2ccccc2s1`, the IC50 in assay [3] was greater than 32 µM; in assay [1] it was 28 µM. Besides, in assay [2], the MIC is 32 µg/mL (≈ 99 µM).

Compound `CS(=O)(=O)c1ccc2nc(NC(=O)NCc3cccs3)sc2c1` displayed an IC50 in assay [1] of 24 µM. The same compound yielded an MIC in assay [2] greater than 32 µg/mL.

Regarding `O=C(O)CSc1nc2ccccc2[nH]1`, in assay [1], the IC50 was greater than 32 µM.

`Nc1nc2ccc(C(=O)O)cc2s1`: in assay [1], the IC50 was greater than 32 µM.

For the compound `COc1ccc2nc(NC(=O)NCc3nc4ccccc4[nH]3)sc2c1`, the IC50 in assay [3] is greater than 32 µM; in assay [1], 7.6 µM. Further, the MIC in assay [2] is 16 µg/mL (≈ 45.3 µM).
